Data as given in patent US8507724B2 (priority 2008, dated 2013).
“And” between values parts separate entries of the source, which are not always exact repeats. Equal values may be shown once. Read-outs that look alike come from different tables or passages of the source.

Assay: in vivo
Type: in vivo
Conditions: rat; for Tmax: read-out: tmax (converted); for half-life: mean n=3, read-out: t1/2
Method: […] Whole blood samples were taken from a lateral tail vein for plasma separation at time points 0 min, 30 min, 1 h, 2 h and 4 h after p.o. dosing; and 0 min, 15 min, 30 min, 1 h, and 2 h after i.v. dosing, while the terminal samples at time point 6 h after dosing (p.o and Lv.) were taken by cardiac puncture. All time points were taken from a single rat, and all experiments were carried out in triplicate.
The samples were thawn at room temperature and prepared by protein precipitation with ratio 1:2 of plasma and acetonitrile and were centrifuged 10 minutes at 16 100×g (Eppendorf 5415D, Eppendorf AG, Hamburg, Germany) before injection to UPLCIMSMS system. The standard samples were prepared similarly, after spiking blank plasma samples to 0.5, 2, 5, 10, 20, 50, 200, 500, 1000 and 2000 ng/ml of the analyte compounds.
The pharmacokinetic parameters for study compounds were calculated by WinNonlin Pro (Pharsight Corp, CA) using standard noncompartmental methods. The volume of distribution (Vd) was based on the terminal phase. The elimination phase half-life (t1/2) was calculated by least-squares regression analysis of the terminal linear part of the log concentration-time curve. The area under the plasma concentration-time curve (AUC) was determined by use of the linear trapezoidal rule up to the last measurable concentration and thereafter by extrapolation of the terminal elimination phase to infinity. The area under the plasma concentration-time curve without terminal extrapolation is reported as AUC 0-6 h. The mean residence time (MRT) representing the average amount of time a compound remains in a compartment or system was calculated extrapolating the drug concentration profile to infinity. The maximum plasma concentration (cmax) and the time to cmax (tmax) were derived directly from the plasma concentration data. The tentative oral bioavailability (F) was calculated by dividing the AUC after p.o. administration by the AUC after i.v. administration taking into account the differences in dose, i.e. F=AUC(p.o.)/Dose(p.o.)/AUC(i.v)/[…], and reported as percentages (%).
A Waters Acquity chromatographic system (Waters Corp., Milford, Mass., USA) with autosampler, vacuum degasser and column oven was used. The analytical column used for all compounds was a Waters BEH ShieldRP18, (2.1×50 mm, 1.7 μm, Waters Corp, Milford, Mass., USA) together with an on-line filter. The eluents were 0.1% acetic acid (A, pH 3.2) and acetonitrile (B). A linear gradient elution from 5% B to 35% B in 0-2 minutes, from 35% B to 85% B in 2.0-3.0 min was employed, followed by 1 min isocratic elution with […] and column equilibration. The flow rate was 0.5 ml/min and the column oven temperature was 35° C. LC/MS/MS/data was acquired with a Micromass Quattro Premier triple quadrupole mass spectrometer equipped with a LockSpray electrospray ionization source. A negative ion mode ionisation was used. The multiple reaction monitoring (MRM) mode of detection was used. The mass spectrometer and UPLC system were operated under Micromass MassLynx 4.1 software. Complete LC/MS/MS parameters are presented in Appendix I.
Detection/quantitation limits between 2 ng/ml and 10 ng/ml in plasma were obtained for each compound. Calibration curves for quantification were generated by fitting the ratio of the external standard peak areas as a function of the concentration, excluding the point of origin and using 1/x weighting and linear or quadratic fitting. The ranges up to 2000 ng/ml were fitted for calibration curves. […] The overall precisions 12.0-17.0% were calculated from the standard samples (two injection/concentration), using Snedecor equation S=(Σd^2/2n)^0.5, in which S=precision, d is the difference between duplicates expressed as % of the mean value, and N is the number of standard concentration. The concentrations of each study compound in the samples are shown in the Appendices IV-VI.

[1] = plasma, iv, i.v. 1 mg/kg, mean n=3
[2] = 1 mg/kg i.v., individual animals, 1 mg/kg
[3] = 8 mg/kg p.o., individual animals, 8 mg/kg

## CC(C)c1cc(Cl)cc(C(C)C)c1O [4-Cl-propofol, 4-Chloropropofol]
[1]
  clearance: 148 mL/min/kg
  Tmax: 15 min
plasma, oral, 8 mg/kg p.o. vs 1 mg/kg i.v., read-out: F (%) tentative oral bioavailability
  bioavailability: 72.4%
plasma, po, p.o. 8 mg/kg, mean n=3
  Tmax: 30 min
1 mg/kg i.v., individual animals
  tmax: 15 min
[2]
  AUC: 10.7 µg·min/mL and 5.43 µg·min/mL and 6.01 µg·min/mL
  CL/F: 93.2 mL/min/kg and 184 mL/min/kg and 166 mL/min/kg
  MRT: 31.8 min and 80.8 min and 33.6 min
  cmax: 170 ng/mL and 70 ng/mL and 90 ng/mL
  t1/2: 16.3 min and 81.8 min and 48.2 min
8 mg/kg p.o., individual animals
  tmax: 30 min
[3]
  AUC: 33.2 µg·min/mL and 34.9 µg·min/mL and 60.4 µg·min/mL
  CL/F: 229 mL/min/kg and 133 mL/min/kg
  MRT: 305 min and 760 min and 764 min
  cmax: 0.12 μg/mL (2×) and 0.05 μg/mL
  t1/2: 205 min and 493 min and 496 min
i.v. 1 mg/kg, mean n=3
  ADC 0-6 h: 6.29 µg·min/mL
  AUC: 7.39 µg·min/mL
  CL/F: 148 mL/min/kg
i.v. dosing
  half life (in words): intermediate
i.v. dosing, compared to rat liver blood flow
  clearance (in words): very high
Iv (1 mg/kg), 15 min, individual animals, listed as CK1-1, 1 mg/kg
  concentration in plasma: 172 ng/mL and 70.0 ng/mL and 94.3 ng/mL
Iv (1 mg/kg), 30 min, individual animals, listed as CK1-1, 1 mg/kg
  concentration in plasma: 26.1 ng/mL and 25.4 ng/mL
Iv (1 mg/kg), 1 h, individual animals, listed as CK1-1, 1 mg/kg
  concentration in plasma: 15.2 ng/mL and 16.5 ng/mL
Iv (1 mg/kg), 2 h, individual animals, listed as CK1-1, 1 mg/kg
  concentration in plasma: 33.7 ng/mL and 11.5 ng/mL
p.o.
  detection in plasma after oral (p.o.) administration: observed in plasma
p.o. 8 mg/kg, mean n=3
  ADC 0-6 h: 18.7 µg·min/mL
  AUC: 42.8 µg·min/mL
  CL: 146 mL/min/kg
  Vd: 79.6 L/kg
plasma, iv, 1 mg/kg, i.v. 1 mg/kg, mean n=3, read-out: MRT (converted)
  MRT: 48.7 min
plasma, iv, 1 mg/kg, i.v. 1 mg/kg, mean n=3, read-out: Vd
  Vd: 11.8 L/kg
plasma, iv, 1 mg/kg, i.v. 1 mg/kg, mean n=3, read-out: cmax
  cmax: 110 ng/mL
plasma, iv, 1 mg/kg, i.v. 1 mg/kg
  half-life: 48.8 min
plasma, iv, 1 mg/kg, iv (1 mg/kg), 30 min, individual animals
  concentration at 30 min: 47.3 ng/mL
plasma, iv, 1 mg/kg, iv (1 mg/kg), 1 h, individual animals
  concentration at 1 h: 13.2 ng/mL
plasma, po, 8 mg/kg, 8 mg/kg p.o., individual animals, read-out: CL/F
  CL/F: 241 mL/min/kg
plasma, po, 8 mg/kg, p.o. 8 mg/kg, mean n=3
  Vd/F: 110 L/kg
plasma, po, 8 mg/kg, p.o. 8 mg/kg, mean n=3, read-out: CL/F
  CL/F: 201 mL/min/kg
plasma, po, 8 mg/kg, p.o. 8 mg/kg, mean n=3, read-out: MRT (converted)
  MRT: 609 min
plasma, po, 8 mg/kg, p.o. 8 mg/kg, mean n=3, read-out: cmax
  cmax: 100 ng/mL
plasma, po, 8 mg/kg, p.o. 8 mg/kg
  half-life: 398 min
plasma, po, 8 mg/kg, po (8 mg/kg), 4 h, individual animals
  concentration at 4 h: 61.8 ng/mL
plasma, po, 8 mg/kg, po (8 mg/kg), 6 h, individual animals
  concentration at 6 h: 33.8 ng/mL
Po (8 mg/kg), 30 min, individual animals, listed as CK1-1, 8 mg/kg
  concentration in plasma: 121 ng/mL and 116 ng/mL and 51.0 ng/mL
Po (8 mg/kg), 1 h, individual animals, listed as CK1-1, 8 mg/kg
  concentration in plasma: 99.8 ng/mL and 47.3 ng/mL and 57.2 ng/mL
Po (8 mg/kg), 2 h, individual animals, listed as CK1-1, 8 mg/kg
  concentration in plasma: 64.3 ng/mL and 25.3 ng/mL and 52.3 ng/mL
Po (8 mg/kg), 4 h, individual animals, listed as CK1-1, 8 mg/kg
  concentration in plasma: 36.1 ng/mL and 55.1 ng/mL
Po (8 mg/kg), 6 h, individual animals, listed as CK1-1, 8 mg/kg
  concentration in plasma: 32.0 ng/mL and 55.3 ng/mL
